S=c1[nH]c2ccccc2s1
solubility (mole fraction)
Conditions | in isobutanol | in isopropanol | in methanol | in n-butanol | in n-propanol | in toluene
273.15 K | – | 0.00949 | 0.00733 | 0.0198 | 0.015 | 0.00192
275.65 K | – | 0.0103 | 0.00795 | 0.0211 | 0.016 | 0.00205
278.15 K | – | 0.0111 | 0.00868 | 0.0224 | 0.017 | 0.0022
280.65 K | – | 0.0122 | 0.00946 | 0.0238 | 0.0181 | 0.00236
283.15 K | – | 0.0134 | 0.0103 | 0.0252 | 0.0194 | 0.00254
285.65 K | – | 0.0148 | 0.0111 | 0.0265 | 0.0205 | 0.00272
288.15 K | – | 0.0161 | 0.0121 | 0.0281 | 0.0219 | 0.0029
290.65 K | – | 0.0175 | 0.0131 | 0.0299 | 0.0232 | 0.0031
293.15 K | – | 0.0192 | 0.0141 | 0.0314 | 0.0245 | 0.00333
295.65 K | – | 0.0208 | 0.0153 | 0.0332 | 0.026 | 0.00354
298.15 K | – | 0.0224 | 0.0164 | 0.0349 | 0.0277 | 0.00378
300.65 K | – | 0.0242 | 0.0178 | 0.0368 | 0.029 | 0.00405
303.15 K | 0.027 | 0.0261 | 0.0192 | 0.0386 | 0.0309 | 0.00427
305.65 K | 0.0292 | 0.0282 | 0.0205 | 0.0405 | 0.0324 | 0.00454
308.15 K | 0.0311 | 0.0305 | 0.022 | 0.0425 | 0.0342 | 0.00482
310.65 K | 0.0336 | 0.0328 | 0.0235 | 0.045 | 0.036 | 0.0051
313.15 K | 0.0361 | 0.0352 | 0.0252 | 0.0468 | 0.038 | 0.00544
315.65 K | 0.0386 | 0.0378 | 0.0269 | 0.0489 | 0.04 | 0.00572
318.15 K | 0.0411 | 0.0408 | 0.0289 | 0.0513 | 0.0421 | 0.00608
